From patent US6461997B1, “Triazole sulfones having herbicidal activity” (Monsanto Technology LLC, priority 1999, dated 2002)

system: CIRAR (canada thistle (seedling)); test: Pre-plant incorporated (PPI) herbicidal activity, warm season; assay type: in vivo, Cirsium arvense; details: GR80 = lowest tested rate with 80% or greater inhibition, approx. 14 days after treating, 30/21° C.
Procedure: (§1) In another set of tests, the pre-plant incorporated (PPI) activity of compounds of this invention was evaluated on the same species as for the pre-emergence tests described above. In the PPI tests the following procedure, designed to simulate PPI application, was used.
(§2) A pre-prepared topsoil mixture (described above) was placed in a pot and compacted to a depth of 1.0 to 1.25 cm from the top of the pot. Seeds of each of several monocotyledonous and dicotyledonous annual plant species were placed on top of the soil. A sufficient quantity of soil to cover the seeds and level fill the pot was weighed into an open container. A known amount of the test compound was dissolved or suspended in an organic solvent and applied by spraying to this cover soil. The cover soil was thoroughly mixed to distribute the test compound throughout the cover soil, and was then applied as a cover layer over the seeds. Untreated soil was used as a cover layer for control pots. After treatment the plants were placed in a greenhouse where they received 0.64 cm of overhead irrigation. All subsequent watering consisted of a light overhead mist and/or subirrigation as needed for germination and growth. Tables 9 and 10 below relate to warm season plant species which were placed after pre-emergence treatment in a greenhouse with a 30/21° C. day/night temperature regime. Tables 11 and 12 below relates to cool season plant species placed after pre-emergence treatment in a greenhouse or growth chamber with an 18/13° C. day/night temperature regime. Only the compounds of Examples 1, 6, 8, 11, 13 and 15-20 were included in PPI tests.
(§3) Approximately 14 days after planting and treating, the plants were observed and herbicidal efficacy recorded as percent inhibition by comparison with untreated plants.

| Structure (SMILES) | PPI activity (GR80) CIRAR |
| --- | --- |
| C=CCC(F)(F)S(=O)(=O)c1ncn(C(=O)N(CC)CC)n1 [Example 17, 1-(N,N-diethylcarbamoyl)-3-[(1,1-difluoro-3-butenyl)sulfonyl]-1,2,4-triazole] | 300 g/ha |

system: LOLMG (annual ryegrass); test: Pre-emergence herbicidal activity, cool season; assay type: in vivo, Lolium multiflorum; details: GR80 = lowest tested rate (300, 100, 30, 10 g/ha) with 80% or greater inhibition; approx. 14 days after treating; 18/13° C.
How it was run: (§4)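 Seeds sown in sterilised fertilised topsoil received surface-applied compound in 50:50 acetone/water, typically at 300, 100, 30 and 10 g/ha, then greenhouse-grown at 30/21° C (warm-season species) or 18/13° C (cool-season species). Percent inhibition versus untreated plants was scored at about 14 days, giving GR80; an asterisk marks activity short of 80% at the top rate.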

| Structure (SMILES) | Pre-emergence activity (GR80) LOLMG |
| --- | --- |
| C=CCC(F)(F)S(=O)(=O)c1ncn(C(=O)N(CC)CC)n1 [Example 17, 1-(N,N-diethylcarbamoyl)-3-[(1,1-difluoro-3-butenyl)sulfonyl]-1,2,4-triazole] | 100 g/ha |

system: KCHSC (kochia); test: Pre-plant incorporated (PPI) herbicidal activity, cool season; assay type: in vivo, Kochia scoparia; details: Bassia scoparia; weed, PPI application, 10 g/ha; read-out: Percent inhibition KCHSC
Procedure: as §1, §2, §3

| Structure (SMILES) | inhibition at 10 g/ha |
| --- | --- |
| C=CCC(F)(F)S(=O)(=O)c1ncn(C(=O)N(CC)CC)n1 [Example 17, 1-(N,N-diethylcarbamoyl)-3-[(1,1-difluoro-3-butenyl)sulfonyl]-1,2,4-triazole] | 70% |

same assay, conditions: Bassia scoparia; weed, PPI application, 30 g/ha; read-out: Percent inhibition KCHSC

| Structure (SMILES) | inhibition at 30 g/ha |
| --- | --- |
| C=CCC(F)(F)S(=O)(=O)c1ncn(C(=O)N(CC)CC)n1 [Example 17, 1-(N,N-diethylcarbamoyl)-3-[(1,1-difluoro-3-butenyl)sulfonyl]-1,2,4-triazole] | 100% |

same assay, conditions: Bassia scoparia; weed, PPI application, 100 g/ha; read-out: Percent inhibition KCHSC

| Structure (SMILES) | inhibition at 100 g/ha |
| --- | --- |
| C=CCC(F)(F)S(=O)(=O)c1ncn(C(=O)N(CC)CC)n1 [Example 17, 1-(N,N-diethylcarbamoyl)-3-[(1,1-difluoro-3-butenyl)sulfonyl]-1,2,4-triazole] | 100% |

same assay, conditions: Bassia scoparia; weed, PPI application, 300 g/ha; read-out: Percent inhibition KCHSC

| Structure (SMILES) | inhibition at 300 g/ha |
| --- | --- |
| C=CCC(F)(F)S(=O)(=O)c1ncn(C(=O)N(CC)CC)n1 [Example 17, 1-(N,N-diethylcarbamoyl)-3-[(1,1-difluoro-3-butenyl)sulfonyl]-1,2,4-triazole] | 100% |

same assay, conditions: Bassia scoparia; weed, PPI application, 900 g/ha; read-out: Percent inhibition KCHSC

| Structure (SMILES) | inhibition at 900 g/ha |
| --- | --- |
| C=CCC(F)(F)S(=O)(=O)c1ncn(C(=O)N(CC)CC)n1 [Example 17, 1-(N,N-diethylcarbamoyl)-3-[(1,1-difluoro-3-butenyl)sulfonyl]-1,2,4-triazole] | 100% |

same assay, conditions: pre-plant incorporated; lowest tested rate with 80% or greater inhibition; about 14 days

| Structure (SMILES) | PPI activity GR80, KCHSC |
| --- | --- |
| C=CCC(F)(F)S(=O)(=O)c1ncn(C(=O)N(CC)CC)n1 [Example 17, 1-(N,N-diethylcarbamoyl)-3-[(1,1-difluoro-3-butenyl)sulfonyl]-1,2,4-triazole] | 30 g/ha |

system: SASKR (russian thistle); test: as above; assay type: in vivo, Salsola kali; details: Salsola kali; weed, PPI application, 10 g/ha; read-out: Percent inhibition SASKR
Procedure: as §1, §2, §3

| Structure (SMILES) | inhibition at 10 g/ha |
| --- | --- |
| C=CCC(F)(F)S(=O)(=O)c1ncn(C(=O)N(CC)CC)n1 [Example 17, 1-(N,N-diethylcarbamoyl)-3-[(1,1-difluoro-3-butenyl)sulfonyl]-1,2,4-triazole] | 0% |

same assay, conditions: Salsola kali; weed, PPI application, 30 g/ha; read-out: Percent inhibition SASKR

| Structure (SMILES) | inhibition at 30 g/ha |
| --- | --- |
| C=CCC(F)(F)S(=O)(=O)c1ncn(C(=O)N(CC)CC)n1 [Example 17, 1-(N,N-diethylcarbamoyl)-3-[(1,1-difluoro-3-butenyl)sulfonyl]-1,2,4-triazole] | 0% |

same assay, conditions: Salsola kali; weed, PPI application, 100 g/ha; read-out: Percent inhibition SASKR

| Structure (SMILES) | inhibition at 100 g/ha |
| --- | --- |
| C=CCC(F)(F)S(=O)(=O)c1ncn(C(=O)N(CC)CC)n1 [Example 17, 1-(N,N-diethylcarbamoyl)-3-[(1,1-difluoro-3-butenyl)sulfonyl]-1,2,4-triazole] | 0% |

same assay, conditions: Salsola kali; weed, PPI application, 300 g/ha; read-out: Percent inhibition SASKR

| Structure (SMILES) | inhibition at 300 g/ha |
| --- | --- |
| C=CCC(F)(F)S(=O)(=O)c1ncn(C(=O)N(CC)CC)n1 [Example 17, 1-(N,N-diethylcarbamoyl)-3-[(1,1-difluoro-3-butenyl)sulfonyl]-1,2,4-triazole] | 60% |

same assay, conditions: Salsola kali; weed, PPI application, 900 g/ha; read-out: Percent inhibition SASKR

| Structure (SMILES) | inhibition at 900 g/ha |
| --- | --- |
| C=CCC(F)(F)S(=O)(=O)c1ncn(C(=O)N(CC)CC)n1 [Example 17, 1-(N,N-diethylcarbamoyl)-3-[(1,1-difluoro-3-butenyl)sulfonyl]-1,2,4-triazole] | 100% |

same assay, conditions: pre-plant incorporated; lowest tested rate with 80% or greater inhibition; about 14 days

| Structure (SMILES) | PPI activity GR80, SASKR |
| --- | --- |
| C=CCC(F)(F)S(=O)(=O)c1ncn(C(=O)N(CC)CC)n1 [Example 17, 1-(N,N-diethylcarbamoyl)-3-[(1,1-difluoro-3-butenyl)sulfonyl]-1,2,4-triazole] | 30 g/ha |

system: CONAR (field bindweed); test: Pre-plant incorporated (PPI) herbicidal activity, warm season; assay type: in vivo, Convolvulus arvensis; details: GR80 = lowest tested rate with 80% or greater inhibition, approx. 14 days after treating, 30/21° C.
Procedure: as §1, §2, §3

| Structure (SMILES) | PPI activity (GR80) CONAR |
| --- | --- |
| C=CCC(F)(F)S(=O)(=O)c1ncn(C(=O)N(CC)CC)n1 [Example 17, 1-(N,N-diethylcarbamoyl)-3-[(1,1-difluoro-3-butenyl)sulfonyl]-1,2,4-triazole] | * (activity observed, at least at highest rate, but <80% inhibition) |

system: POROL (common purslane); test: as above; assay type: in vivo, Portulaca oleracea; details: GR80 = lowest tested rate with 80% or greater inhibition, approx. 14 days after treating, 30/21° C.
Procedure: as §1, §2, §3

| Structure (SMILES) | PPI activity (GR80) POROL |
| --- | --- |
| C=CCC(F)(F)S(=O)(=O)c1ncn(C(=O)N(CC)CC)n1 [Example 17, 1-(N,N-diethylcarbamoyl)-3-[(1,1-difluoro-3-butenyl)sulfonyl]-1,2,4-triazole] | 30 g/ha |

system: ABUTH (velvetleaf); test: Pre-emergence herbicidal activity, warm season; assay type: in vivo, Abutilon theophrasti; details: GR80 = lowest tested rate (300, 100, 30, 10 g/ha) with 80% or greater inhibition; approx. 14 days after treating; 30/21° C.
How it was run: as §4

| Structure (SMILES) | Pre-emergence activity (GR80) ABUTH |
| --- | --- |
| C=CCC(F)(F)S(=O)(=O)c1ncn(C(=O)N(CC)CC)n1 [Example 17, 1-(N,N-diethylcarbamoyl)-3-[(1,1-difluoro-3-butenyl)sulfonyl]-1,2,4-triazole] | 300 g/ha |

system: BROTE (downy brome); test: Pre-emergence herbicidal activity, cool season; assay type: in vivo, Bromus tectorum; details: GR80 = lowest tested rate (300, 100, 30, 10 g/ha) with 80% or greater inhibition; approx. 14 days after treating; 18/13° C.
How it was run: as §4

| Structure (SMILES) | Pre-emergence activity (GR80) BROTE |
| --- | --- |
| C=CCC(F)(F)S(=O)(=O)c1ncn(C(=O)N(CC)CC)n1 [Example 17, 1-(N,N-diethylcarbamoyl)-3-[(1,1-difluoro-3-butenyl)sulfonyl]-1,2,4-triazole] | 100 g/ha |

system: AVEFA (wild oat); test: Pre-emergence herbicidal activity, cool season; assay type: in vivo, Avena fatua; details: GR80 = lowest tested rate (300, 100, 30, 10 g/ha) with 80% or greater inhibition; approx. 14 days after treating; 18/13° C.
How it was run: as §4

| Structure (SMILES) | Pre-emergence activity (GR80) AVEFA |
| --- | --- |
| C=CCC(F)(F)S(=O)(=O)c1ncn(C(=O)N(CC)CC)n1 [Example 17, 1-(N,N-diethylcarbamoyl)-3-[(1,1-difluoro-3-butenyl)sulfonyl]-1,2,4-triazole] | 100 g/ha |
